Source: paper PMC4010122 (Journal of medicinal chemistry, 2008)

Assays:
Assay type in all cases: biochemical
BRAF^WT = BRAF^WT (Homo sapiens, UniProt P15056); assay: ELISA-based MEK phosphorylation assay
PI3Kγ = PI3Kγ (Homo sapiens, UniProt P48736); assay: Kinase profiling, PI3Kγ lipid kinase; conditions: BRAF versus PI3Kγ
GSK3β = GSK3β (Homo sapiens, UniProt P49841); assay: Kinase profiling, GSK3β; conditions: inhibitor concentration of 100 μM
Pim1 = Pim1 (Homo sapiens, UniProt P11309); assay: Kinase profiling, Pim1; conditions: inhibitor concentration of 100 μM
MST1 = target: T1, MST1 (Homo sapiens, UniProt Q13043); assay: Kinase profiling, MST1; conditions: inhibitor concentration of 100 μM
T1 sequence (Q13043 1-487): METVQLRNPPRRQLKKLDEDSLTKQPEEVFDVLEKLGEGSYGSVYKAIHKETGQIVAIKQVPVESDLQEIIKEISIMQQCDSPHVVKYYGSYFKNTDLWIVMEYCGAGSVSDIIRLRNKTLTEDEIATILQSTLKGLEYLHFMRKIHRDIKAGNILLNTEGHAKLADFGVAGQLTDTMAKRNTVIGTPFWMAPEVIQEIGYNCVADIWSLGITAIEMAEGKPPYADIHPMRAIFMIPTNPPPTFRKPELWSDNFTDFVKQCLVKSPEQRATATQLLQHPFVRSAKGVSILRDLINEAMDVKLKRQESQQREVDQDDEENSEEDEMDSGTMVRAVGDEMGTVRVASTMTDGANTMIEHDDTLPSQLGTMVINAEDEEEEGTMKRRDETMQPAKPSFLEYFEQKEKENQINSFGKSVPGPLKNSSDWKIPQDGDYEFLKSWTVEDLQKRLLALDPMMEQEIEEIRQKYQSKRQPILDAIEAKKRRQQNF

PAK1 = PAK1 (Homo sapiens, UniProt Q13153); assay: Kinase profiling, PAK1; conditions: inhibitor concentration of 100 μM
PAK4 = PAK4 (Homo sapiens, UniProt O96013); assay: Kinase profiling, PAK4; conditions: inhibitor concentration of 100 μM
PAK4, sequence (O96013 whole entry, species assumed): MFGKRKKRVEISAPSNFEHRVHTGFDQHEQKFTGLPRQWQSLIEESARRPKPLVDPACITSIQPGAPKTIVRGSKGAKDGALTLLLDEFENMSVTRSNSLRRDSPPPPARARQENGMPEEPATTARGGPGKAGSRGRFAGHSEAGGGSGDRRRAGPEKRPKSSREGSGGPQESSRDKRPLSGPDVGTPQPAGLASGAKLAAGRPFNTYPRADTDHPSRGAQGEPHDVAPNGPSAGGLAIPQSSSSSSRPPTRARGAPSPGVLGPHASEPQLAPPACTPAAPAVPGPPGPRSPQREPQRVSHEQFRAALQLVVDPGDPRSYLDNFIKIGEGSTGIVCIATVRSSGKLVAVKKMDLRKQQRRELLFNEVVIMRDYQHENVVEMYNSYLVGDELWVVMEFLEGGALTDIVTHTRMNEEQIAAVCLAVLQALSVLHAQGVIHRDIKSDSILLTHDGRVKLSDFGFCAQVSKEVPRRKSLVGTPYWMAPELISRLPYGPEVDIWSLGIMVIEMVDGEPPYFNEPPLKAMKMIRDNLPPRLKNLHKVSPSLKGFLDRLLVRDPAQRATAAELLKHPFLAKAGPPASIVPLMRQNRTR

BRAF^WT, sequence (P15056 433-726): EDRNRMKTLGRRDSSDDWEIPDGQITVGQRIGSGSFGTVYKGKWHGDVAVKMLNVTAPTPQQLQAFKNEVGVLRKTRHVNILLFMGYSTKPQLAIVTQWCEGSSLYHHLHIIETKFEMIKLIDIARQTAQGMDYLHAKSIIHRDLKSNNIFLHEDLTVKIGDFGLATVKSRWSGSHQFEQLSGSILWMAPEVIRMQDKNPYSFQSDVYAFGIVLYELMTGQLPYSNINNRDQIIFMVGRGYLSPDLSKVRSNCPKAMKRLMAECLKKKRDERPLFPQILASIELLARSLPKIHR
PAK1, sequence (Q13153 whole entry): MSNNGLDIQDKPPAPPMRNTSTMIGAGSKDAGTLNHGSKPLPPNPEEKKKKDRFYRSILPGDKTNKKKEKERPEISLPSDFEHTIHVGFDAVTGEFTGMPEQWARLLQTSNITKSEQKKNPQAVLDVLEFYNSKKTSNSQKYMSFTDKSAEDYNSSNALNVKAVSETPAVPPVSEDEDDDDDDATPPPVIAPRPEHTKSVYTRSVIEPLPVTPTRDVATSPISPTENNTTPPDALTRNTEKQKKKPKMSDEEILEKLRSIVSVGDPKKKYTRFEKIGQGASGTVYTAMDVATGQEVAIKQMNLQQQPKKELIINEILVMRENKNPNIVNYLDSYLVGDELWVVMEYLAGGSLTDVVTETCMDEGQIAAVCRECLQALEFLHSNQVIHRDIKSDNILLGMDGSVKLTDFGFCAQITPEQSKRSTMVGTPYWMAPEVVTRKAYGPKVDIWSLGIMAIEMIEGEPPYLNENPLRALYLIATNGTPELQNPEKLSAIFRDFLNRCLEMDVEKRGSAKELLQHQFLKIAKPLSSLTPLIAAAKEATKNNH
Pim1, sequence (P11309 whole entry, species assumed): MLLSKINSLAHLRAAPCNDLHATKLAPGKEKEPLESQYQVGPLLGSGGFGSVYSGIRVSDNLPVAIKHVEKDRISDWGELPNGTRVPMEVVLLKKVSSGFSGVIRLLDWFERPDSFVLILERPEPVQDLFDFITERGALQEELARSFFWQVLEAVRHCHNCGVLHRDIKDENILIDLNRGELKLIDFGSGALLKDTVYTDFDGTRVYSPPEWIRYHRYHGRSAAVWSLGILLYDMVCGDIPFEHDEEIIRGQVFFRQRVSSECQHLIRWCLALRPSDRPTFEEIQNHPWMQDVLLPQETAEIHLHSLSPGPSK
PI3Kγ, sequence (P48736 whole entry, species assumed): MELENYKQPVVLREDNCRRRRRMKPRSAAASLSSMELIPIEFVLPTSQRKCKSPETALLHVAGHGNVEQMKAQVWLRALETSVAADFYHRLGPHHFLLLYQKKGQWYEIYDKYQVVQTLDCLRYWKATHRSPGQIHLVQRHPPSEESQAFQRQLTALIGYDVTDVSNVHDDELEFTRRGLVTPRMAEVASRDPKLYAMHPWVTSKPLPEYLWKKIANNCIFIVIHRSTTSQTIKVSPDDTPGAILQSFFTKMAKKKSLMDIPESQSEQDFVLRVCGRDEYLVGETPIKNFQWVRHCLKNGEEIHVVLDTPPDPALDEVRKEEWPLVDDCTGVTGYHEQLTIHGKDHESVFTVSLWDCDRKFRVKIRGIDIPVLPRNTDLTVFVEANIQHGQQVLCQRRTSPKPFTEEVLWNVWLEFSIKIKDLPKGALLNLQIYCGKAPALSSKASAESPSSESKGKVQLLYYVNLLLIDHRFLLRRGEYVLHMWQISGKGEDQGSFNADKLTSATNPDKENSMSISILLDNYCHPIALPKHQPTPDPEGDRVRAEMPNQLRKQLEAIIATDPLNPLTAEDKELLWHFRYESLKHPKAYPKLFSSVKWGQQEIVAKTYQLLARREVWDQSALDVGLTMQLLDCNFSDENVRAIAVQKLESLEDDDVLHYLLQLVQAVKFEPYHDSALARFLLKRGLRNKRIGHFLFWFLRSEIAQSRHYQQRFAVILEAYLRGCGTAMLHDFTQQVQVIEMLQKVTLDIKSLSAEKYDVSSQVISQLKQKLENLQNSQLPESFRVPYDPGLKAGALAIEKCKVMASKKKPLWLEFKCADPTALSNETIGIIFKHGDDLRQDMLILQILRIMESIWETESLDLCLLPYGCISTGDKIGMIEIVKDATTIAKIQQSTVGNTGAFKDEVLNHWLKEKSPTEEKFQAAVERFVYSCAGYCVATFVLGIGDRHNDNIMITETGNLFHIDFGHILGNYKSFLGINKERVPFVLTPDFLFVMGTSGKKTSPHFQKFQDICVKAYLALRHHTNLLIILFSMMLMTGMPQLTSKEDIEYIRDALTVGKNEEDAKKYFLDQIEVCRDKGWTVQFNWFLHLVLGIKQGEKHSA
GSK3β, sequence (P49841 whole entry, species assumed): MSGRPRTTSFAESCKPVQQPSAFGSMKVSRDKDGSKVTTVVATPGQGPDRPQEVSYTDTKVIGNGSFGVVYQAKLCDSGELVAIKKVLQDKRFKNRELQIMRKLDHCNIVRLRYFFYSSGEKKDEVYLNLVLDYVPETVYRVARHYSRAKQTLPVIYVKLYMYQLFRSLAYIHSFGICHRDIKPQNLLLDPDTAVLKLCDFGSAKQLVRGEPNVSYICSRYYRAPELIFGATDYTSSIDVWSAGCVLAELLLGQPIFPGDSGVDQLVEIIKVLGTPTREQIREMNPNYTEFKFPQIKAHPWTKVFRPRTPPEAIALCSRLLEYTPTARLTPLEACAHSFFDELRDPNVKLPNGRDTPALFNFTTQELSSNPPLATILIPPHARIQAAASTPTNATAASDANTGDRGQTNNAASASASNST

For `CC1Nc2nc(NC(=O)c3ccc[n+](C)c3)[nH]c(=O)c2N(C(=O)c2ccc[n+](C)c2)C1C` (stereo not shown) [compound 1], which remaining activity at 100 µM (BRAF^WT; read-out: BRAF kinase activity remaining (of wild-type activity)) is on record?
Its remaining activity at 100 µM is ~80%.

What does the source list for `Cn1c(=O)n(Cc2ccccc2)c(=O)c2c1nc(SCCO)n2Cc1ccccc1` [compound 24]?
selectivity for BRAF over other representative protein kinases (BRAF^WT; versus GSK3β, Pim1, MST1, PAK1, PAK4): more than 50 fold; selectivity for BRAF over PI3K lipid kinases (PI3Kγ): > 12 fold; inhibition against GSK3β (GSK3β): did not show significant inhibition; inhibition against Pim1 (Pim1): did not show significant inhibition; inhibition against MST1 (MST1): did not show significant inhibition; inhibition against PAK1 (PAK1): did not show significant inhibition; inhibition against PAK4 (PAK4): did not show significant inhibition

Which “reduction in BRAF inhibitor potency relative to compound 19” value (BRAF^WT) does the source give for `Cn1c(=O)[nH]c(=O)c2c1nc(N/N=C\c1cccc([N+](=O)[O-])c1)n2Cc1ccccc1` [compound 31] here?
Its value is ≥ 20 fold.

With `Cn1c(=O)[nH]c(=O)c2c1nc(N/N=C\c1ccc([N+](=O)[O-])cc1)n2Cc1ccccc1` [compound 32] as the molecule, how does the “reduction in BRAF inhibitor potency relative to compound 19” value (BRAF^WT) read?
Its value is ≥ 20 fold.
